Laboratory results from PubChem BioAssay AID179 (DTP/NCI, 2004).
“And” between values parts separate entries of the source, which are not always exact repeats. Equal entries are not always repeated. The source made the active and inactive calls.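 How the source made its calls: active means compounds giving half or more protection of infected cells from virus-caused growth loss, again on retest; inactive means the rest.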

System: CEM cells HIV-1 protection, formazan growth assay
Test: NCI AIDS Antiviral Assay
Conditions: for IC50: measured here: growth of uninfected CEM cells
Summary of the method: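 Protection of CEM cells against HIV-1 was scored from cell growth (soluble formazan) across five concentrations, with parallel uninfected cells. Lack of protection may reflect toxicity.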

Structure (SMILES)	EC50	IC50	outcome
O=[N+]([O-])c1ccc(N/N=C/c2ccc(OCCCCCCCCCCCO)cc2)c([N+](=O)[O-])c1	> 200 µM	42.7 µM	–
CCOC(=O)c1nc2ccc(C(F)(F)F)cc2nc1NCc1ccc(F)cc1	> 200 µM	23.4 µM	–
C[C@]12CC[C@H](OC(=O)/C=C\c3ccc(N(CCCl)CCCl)cc3)CC1CC[C@@H]1C2CC[C@]2(C)NC(=O)CCC12 (stereo not given in full)	–	–	inactive
CC(=O)c1cc2c(cc1C(C)C)CC[C@H]1[C@](C)(C#N)CCC[C@]21C	> 200 µM	174 µM and 126 µM	–
CC(NNC(=S)N1CCCCCC1)c1cccnn1 (stereo not given)	> 200 µM	0.355 µM	–
CN(C)c1ccc(C(=C2C=CC(=[N+](C)C)C=C2)c2ccc(N(C)C)cc2)cc1	–	–	inactive
C=C1C(O)O[C@@H]2O[C@@]3(C)CC[C@H]4[C@H](C)CCC1[C@@]24O3 (stereo not given in full)	> 200 µM	95.5 µM	–
Cc1cc(NS(=O)(=O)c2ccc(N=Nc3c(Nc4ccccc4)nn(-c4ccc(S(=O)(=O)Nc5ccncn5)cc4)c3C)cc2)no1	> 200 µM	> 200 µM	–
CC(C)(C)OC(=O)N1CCCCC(CCCC#Cc2ccccc2)C1=O (stereo not given)	> 38 µM	> 38 µM	–
Cn1c(=O)nc2n(-c3ccc(Cl)cc3)c(-c3ccccc3)c(-c3ccccc3)nc-2c1=O	–	–	inactive
O=C(O)CCC(NC(=O)c1ccc(OCc2nc3cc(C(F)(F)F)ccc3nc2-c2ccccc2)cc1)C(=O)O (stereo not given)	> 200 µM	> 200 µM	–
COc1ccc2[nH]c3c(C)c4cc[n+](C)cc4c(C)c3c2c1	> 20 µM	0.417 µM	–
CSc1c(C(N)=S)c(N)nn1-c1ccccc1	> 200 µM	155 µM	–
CCCn1c2c(c3ccccc3c1=O)C(=O)c1ccccc1-2	> 18.2 µM	> 18.2 µM	–
N#Cc1nc(N)c(C#N)[nH]1	–	–	inactive
Nc1ncn(C2OC(COP(=O)(O)O)C(O)C2O)c(=O)n1 (stereo not given)	> 200 µM	8.51 µM	–
COC(=O)N1CC2C3C4CC(C(c5ccccc5)=C4c4ccccc4)C3C21 (stereo not given)	> 200 µM	29.5 µM	–
Nc1ccn(C2OC(COP(=O)(O)O)C(O)C2O)c(=O)n1 (stereo not given) (tested in a mixture with another compound)	> 200 µM	40.7 µM	–
CC(C)(C)c1cc(-c2cc(C(C)(C)C)n(-c3ccccc3)n2)nn1-c1ccccc1	> 200 µM	89.1 µM	–
NC(=O)CNC(=O)c1ccc([As](=O)(O)O)cc1	> 200 µM	> 200 µM	–
O=C(O)c1ccccc1C(=O)c1ccc(O)cc1	> 200 µM	> 200 µM	–

Structure (SMILES)	EC50	IC50	outcome
CC(C)c1nc2c(c(=O)o1)CCS2	> 182 µM	> 182 µM	–
O=S1c2ccc(Cl)cc2CC(SSC2Cc3cc(Cl)ccc3S(=O)c3ccccc32)c2ccccc21 (stereo not given)	> 4.68 µM	> 4.68 µM	–
c1ccc(C2(c3ccccc3)S/C(=C3/SC(c4ccccc4)(c4ccccc4)c4ccccc43)c3ccccc32)cc1	–	–	inactive
O=C(NC(O)C(Cl)(Cl)Cl)NC(O)C(Cl)(Cl)Cl (stereo not given)	> 200 µM	> 200 µM	–
Fc1ccc(C(=NCc2ccccc2)N2CCOCC2)cc1	> 200 µM	> 200 µM	–
O=S(=O)(c1ccc(F)cc1)c1ccc(F)cc1	> 200 µM	> 200 µM	–
Cc1ccc(/C=C2\CCCC(CN(C)C)C2=O)cc1 (stereo not given)	> 200 µM	0.617 µM	–
COc1ccc(Cn2nc(OCc3ccccn3)c3cc([N+](=O)[O-])ccc32)cc1	> 200 µM	> 200 µM	–
COc1cc(N=Nc2ccccc2)c2nccc(C)c2c1N	–	–	inactive
COc1nc(N(C)C)nc2c1n(C)c[n+]2C	> 107 µM	12.6 µM	–
O=c1cc(Nc2cccc(O)c2)[nH]c(=O)[nH]1	–	–	inactive
COc1ccc2c3c(c(C(=O)O)oc13)C(CCC(=O)O)CC2 (stereo not given)	–	–	inactive
C[N+](C)(C)CC(=O)N/N=C(/Cc1nc2ccc([N+](=O)[O-])cc2[nH]c1=O)C(=O)Nc1cc(C(F)(F)F)ccc1Cl	> 295 µM	120 µM	–
NCCSSCCN	–	–	active
COC(=O)Cc1c2c3n(c(=O)c1-n1[nH]c(=O)n(-c4ccc(Cl)cc4)c1=O)CCN3CCC2	> 200 µM	> 200 µM	–
COc1ccccc1-n1c(NN)nc2ccc(Br)cc2c1=O	> 138 µM	30.9 µM	–
CCc1cccc(CC)c1NC(=O)C1=C(C)NC(C)=C(C(=O)Nc2c(CC)cccc2CC)C1c1ccc2c(c1)OCO2	> 44.7 µM	23.4 µM	–
O=C1c2ccccc2Sc2ccccc2N1CCN1CCN(c2ccc(F)cc2)CC1	> 200 µM	> 200 µM	–
Cn1c2ccccc2n2c3nc4ccccc4nc3c(C#N)c12	–	–	inactive
COC(=O)c1ccc(COC(=O)c2cc(C(=CCC[C@H]3CC[C@@]4(C)[C@@H](CC[C@@H]5[C@@H]4CC[C@]4(C)[C@@H](C(C)CCCC(C)C)CC[C@@H]54)C3)c3cc(Cl)c(OCc4ccc(C(=O)OC)cc4)c(C(=O)OCc4ccc(C(=O)OC)cc4)c3)cc(Cl)c2OCc2ccc(C(=O)OC)cc2)cc1 (stereo not given in full)	> 200 µM	> 200 µM	–
O=S(=O)([O-])c1ccc(N=Cc2ccccc2[O-])cc1.O=S(=O)([O-])c1ccc(N=Cc2ccccc2[O-])cc1.[Co+2]	> 407 µM	23.4 µM	–

Structure (SMILES)	EC50	IC50	outcome
N/C(=N/O)C(F)(F)C(F)(F)C(F)(F)/C(N)=N\O	> 200 µM	> 200 µM	–
O=C1NC2=C(CCCCC/C2=N\O)C12CCCCCC2	–	–	inactive
COc1ccc2c(c1)-c1nc(=O)n(CCCN(C)C)c3ccc([N+](=O)[O-])c(c13)N2	> 1 µM	0.355 µM	–
CC(=O)N=C(N=Nc1c(O)[nH]c2ccc(C)cc12)NC(C)=O	> 200 µM	148 µM	–
COC(=O)[C@H](CCCN=C(N)N)NC(=O)CCCCCCCCCCNC(=O)c1cc(CNC2=NCCN2)cc(CNC2=NCCN2)c1	> 100 µM	> 100 µM	–
Nc1ccc(C(=O)NN2C(=O)C(Cl)C2c2ccccc2)cc1 (stereo not given)	> 200 µM	47.9 µM	–
C/C=C/CC(C)[C@@H](O)[C@H](NC)C(=O)O (stereo not given in full)	–	–	inactive
NC(CSSCC(NC(=O)OCc1ccccc1)C(=O)O)C(=O)O (stereo not given)	> 200 µM	> 200 µM	–
CC(C)(C)c1ccc(-c2nc3ccccc3c(=O)o2)cc1	> 200 µM	38.9 µM	–
Cc1nc(Nc2ccccc2Cl)c2ccsc2n1	–	–	inactive
CCN1C[C@]2(C)CCC(OC)C34[C@@H]5C[C@@H]6C(OC)[C@@H]5[C@@]5(C[C@@H]6OC)OCO[C@]5([C@H]13)[C@@H](OC(C)=O)[C@@H]42 (stereo not given in full)	–	–	inactive
C[C@@H](O)CCC(=O)c1ccoc1	> 1480 µM	> 1480 µM	–
COCn1c2ccc(OC(C)=O)cc2c2c(=O)oc(C)nc21	> 200 µM	170 µM	–
CCOC(=O)/C(=C\c1ccc(-c2ccccc2)cc1)C(C)=O	> 45.7 µM	> 45.7 µM	–
O=C(/C=C/c1ccccc1Cl)c1ccc(Cl)c(Cl)c1	> 8.71 µM	> 8.71 µM	–
NNc1ccc2cc(S(=O)(=O)O)cc(S(=O)(=O)O)c2c1	> 741 µM	331 µM	–
CCOC(=O)c1c(SC(=O)c2ccc(OC)cc2)n(-c2ccccc2)c(=S)n(-c2ccccc2)c1=O	> 200 µM	28.2 µM	–
O=c1oc2ccc([N+](=O)[O-])cc2cc1Br	> 145 µM	> 145 µM	–
CCN(CC)CCc1nc(-c2ccccc2)no1	> 200 µM	27.5 µM	–
COC1CCC2=CCC3C(=O)N(c4ccccc4)C(=O)C3C21 (stereo not given)	> 603 µM	> 603 µM	–
